Structures are written as SMILES. Values joined by “and” are separate entries in the source; they are usually repeats but may differ in a detail not shown here. Equal entries are not always repeated.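 Test compounds were applied to cells in 96-well plates for 48 hours at 5 doses. GI50 = concentration required for 50% inhibition of growth. TGI: concentration producing complete growth inhibition.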 Some results are limits rather than exact numbers.

This passage reports TGI and GI50 results from PubChem BioAssay (NCI).

Test systems include HL-60(TB) leukemia; RPMI-8226 leukemia; SF-295 CNS; SF-539 CNS; SK-MEL-28 melanoma; SNB-19 CNS; TK-10 renal; UACC-257 melanoma; UACC-62 melanoma; HCT-116 colon.
What all share (assay): NCI anticancer screen, dose series, 48 h

As for `NC(N)=N/N=C/c1c[nH]c2ccccc12`, the TGI with HL-60(TB) leukemia, with RPMI-8226 leukemia, in the experiment with SF-295 CNS, with SF-539 CNS, with SK-MEL-28 melanoma and in the experiment on SNB-19 CNS was above 100 µM in each case. In addition, the TGI with TK-10 renal, with UACC-257 melanoma and in the experiment with UACC-62 melanoma was above 100 µM throughout.

With `C(=Nc1ccc(-c2nc3ccccc3[nH]2)cc1)c1cccs1`, the TGI in the experiment with HCT-116 colon, in the experiment with HL-60(TB) leukemia, in the experiment on RPMI-8226 leukemia, in the experiment with SF-295 CNS, in the experiment on SF-539 CNS and in the experiment with SK-MEL-28 melanoma was above 100 µM throughout. The TGI in the experiment with SNB-19 CNS, with TK-10 renal and with UACC-257 melanoma was above 100 µM throughout.

For the compound `CC1(C)NC2C(=O)c3c([nH]c4ccccc34)[C@]3(C)CCC1CC23` (some centres undefined), the TGI with HCT-116 colon, in the experiment with HL-60(TB) leukemia, with RPMI-8226 leukemia, in the experiment with SF-295 CNS, with SF-539 CNS and in the experiment with SK-MEL-28 melanoma was above 100 µM throughout. In addition, the TGI with TK-10 renal, in the experiment with UACC-257 melanoma and in the experiment on UACC-62 melanoma was above 100 µM throughout.

For the compound `O=C1C(CN2CCCCC2)CCC1CN1CCCCC1` (centres undefined), the TGI is 49.5 µM in the experiment with HCT-116 colon; 28.4 µM with RPMI-8226 leukemia; above 46.4 µM in the experiment on SF-295 CNS; 56.1 µM in the experiment with SF-539 CNS; 41.2 µM with SK-MEL-28 melanoma; above 100 µM in the experiment with SNB-19 CNS. The TGI is 37 µM in the experiment with TK-10 renal, 47.1 µM in the experiment with UACC-257 melanoma and 32.3 µM in the experiment with UACC-62 melanoma.

For the compound `CCCCN1C(=O)N(c2ccc(OCC)cc2)C2N(CCCC)C1C(C)(C)C2(C)C` (centres undefined), the TGI in the experiment on HCT-116 colon is above 100 µM; in the experiment with RPMI-8226 leukemia, 42 µM; with SF-295 CNS, above 100 µM; with SF-539 CNS, 41.9 µM; with SK-MEL-28 melanoma, above 100 µM; in the experiment with SNB-19 CNS it was above 100 µM. Moreover, the TGI in the experiment on TK-10 renal was 60.2 µM; in the experiment on UACC-257 melanoma, above 100 µM; in the experiment on UACC-62 melanoma, 50 µM.

Consider `Nc1nc(N)c2ncn(-c3ccc(Cl)cc3)c2n1`, for which the TGI is above 100 µM in the experiment on HCT-116 colon; above 100 µM in the experiment with HL-60(TB) leukemia; above 100 µM with SF-295 CNS; 80.5 µM in the experiment on SF-539 CNS; above 100 µM in the experiment on SK-MEL-28 melanoma; above 100 µM in the experiment with TK-10 renal. For the same compound, the TGI in the experiment on UACC-257 melanoma and in the experiment on UACC-62 melanoma was above 100 µM in each case.

`O=C1C=CC[C@H]2O[C@@H](COC(=O)Cc3ccccc3)C[C@H]2O1`: the TGI in the experiment with HL-60(TB) leukemia is 65.2 µM; in the experiment on RPMI-8226 leukemia, above 100 µM; in the experiment on SF-295 CNS it was above 100 µM; with SF-539 CNS, above 100 µM; in the experiment with SK-MEL-28 melanoma, 74.4 µM; in the experiment on SNB-19 CNS, above 100 µM. Further, the results for the TGI in the experiment with TK-10 renal, in the experiment on UACC-257 melanoma and with UACC-62 melanoma were 65.5 µM, above 100 µM and above 100 µM, respectively.

`CC1=NNC(N)=N/C1=C\C(Sc1ccc(Cl)cc1)c1ccc([N+](=O)[O-])cc1` (centres undefined): the TGI in the experiment with HCT-116 colon is above 100 µM; with HL-60(TB) leukemia, 76.4 µM; with RPMI-8226 leukemia it was above 100 µM; in the experiment on SF-295 CNS it was above 100 µM; in the experiment with SK-MEL-28 melanoma, above 100 µM; in the experiment with SNB-19 CNS, above 100 µM. In addition, the TGI with TK-10 renal, with UACC-257 melanoma and with UACC-62 melanoma was above 100 µM in each case.

Turning to `COCN(CCC1=CCCCC1)C(=O)OC`, the TGI in the experiment with HCT-116 colon, with RPMI-8226 leukemia, in the experiment on SF-295 CNS, in the experiment on SK-MEL-28 melanoma, in the experiment with SNB-19 CNS and with TK-10 renal was above 100 µM each time. Moreover, the TGI with UACC-257 melanoma and in the experiment on UACC-62 melanoma was above 100 µM each time.

Turning to `CCOc1cn(C2CC(O)C(CO)O2)c(=O)[nH]c1=O` (centres undefined), the TGI in the experiment with HCT-116 colon, in the experiment on HL-60(TB) leukemia, in the experiment with RPMI-8226 leukemia, in the experiment with SK-MEL-28 melanoma, in the experiment with SNB-19 CNS and in the experiment on TK-10 renal was above 100 µM throughout. The TGI in the experiment with UACC-257 melanoma and with UACC-62 melanoma was above 100 µM throughout.

Turning to `C[C@]12CCC(=O)O[C@H]1CCCCO2`, the TGI in the experiment with HCT-116 colon, in the experiment with HL-60(TB) leukemia, with SF-295 CNS, with SF-539 CNS, with SK-MEL-28 melanoma and in the experiment on TK-10 renal was above 100 µM each time. Moreover, the TGI in the experiment with UACC-257 melanoma and with UACC-62 melanoma was above 100 µM each time.

Turning to `C=CCCN1CCc2c([nH]c3ccccc23)C1C(=O)O` (centres undefined), the TGI in the experiment on HCT-116 colon, with HL-60(TB) leukemia, in the experiment with SF-295 CNS, with SF-539 CNS, with SK-MEL-28 melanoma and with SNB-19 CNS was above 100 µM throughout. Further, the TGI in the experiment with TK-10 renal, in the experiment with UACC-257 melanoma and with UACC-62 melanoma was above 100 µM in each case.

In the case of `OCC(O)COCn1nncc1Cn1ncc2c(SCc3ccccc3)ncnc21` (centres undefined), the TGI in the experiment on HCT-116 colon, in the experiment with SF-295 CNS, with SF-539 CNS, in the experiment with SK-MEL-28 melanoma, with SNB-19 CNS and with TK-10 renal was above 100 µM each time. The TGI with UACC-257 melanoma and in the experiment on UACC-62 melanoma was above 100 µM in each case.

For the compound `COc1cc(/C=C(\C#N)C(N)=O)cc(Br)c1O`, the TGI in the experiment with HCT-116 colon, with HL-60(TB) leukemia, in the experiment on RPMI-8226 leukemia, in the experiment on SF-295 CNS, with SF-539 CNS and in the experiment with SK-MEL-28 melanoma was above 100 µM each time. For the same compound, the TGI in the experiment on SNB-19 CNS, with UACC-257 melanoma and in the experiment with UACC-62 melanoma was above 100 µM throughout. In addition, the GI50 in the experiment with HL-60(TB) leukemia was 83.8 µM and 59.8 µM; in the experiment with UACC-62 melanoma, 35.9 µM and > 100 µM.

`COc1ccccc1/C=C1\SC(=S)N(/C=C2\C(=O)Oc3ccccc3C2=O)C1=O`: the TGI in the experiment with HCT-116 colon was above 100 µM; in the experiment with SF-539 CNS it was 85.3 µM; in the experiment with SNB-19 CNS, above 100 µM; with TK-10 renal it was 95.9 µM; in the experiment on UACC-257 melanoma, 62.2 µM; in the experiment on UACC-62 melanoma, 64 µM.
